From ChEMBL document CHEMBL4837253, “Structure-Based Discovery of Proline-Derived Arginase Inhibitors with Improved Oral Bioavailability for Immuno-Oncology” (ACS Med Chem Lett, 2021)
Active and inactive are the calls of the source. No cut-off for these calls is given here.

Experiments:
[1] = target: T1, Arginase-1 (Homo sapiens, UniProt P05089); test: Inhibition of human recombinant ARG1 expressed in Escherichia coli using thioarginine as a substrate preincubated for 30 mins followed by substrate addition and incubated for 60 mins by fluorescence based arginine thio ornithine generating assay
T1 sequence (P05089 whole entry): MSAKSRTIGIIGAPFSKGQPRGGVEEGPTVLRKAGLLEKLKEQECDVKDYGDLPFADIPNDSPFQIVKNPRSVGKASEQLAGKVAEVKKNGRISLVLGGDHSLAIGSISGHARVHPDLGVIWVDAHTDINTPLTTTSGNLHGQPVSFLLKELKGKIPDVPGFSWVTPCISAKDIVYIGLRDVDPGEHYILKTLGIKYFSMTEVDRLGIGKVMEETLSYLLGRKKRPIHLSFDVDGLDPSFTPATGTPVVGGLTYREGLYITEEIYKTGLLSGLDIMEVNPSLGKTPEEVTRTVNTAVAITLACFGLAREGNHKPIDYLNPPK

[2] = target: T1, Arginase-1; test: Inhibition of human ARG1 in HEK293 cells by cell based assay
[3] = Oral bioavailability in C57BL/6 mouse at 10 mg/kg; assay type: ADME, organism-based; settings: in vivo
[4] = Oral bioavailability in Wister Han rat at 10 mg/kg; assay type: ADME, organism-based; settings: in vivo
[5] = Stability in C57BL/6 mouse hepatocytes; assay type: ADME, cell-based, Hepatocyte
[6] = test system: EMT6; test: In vivo inhibition of […] in EMT6 tumor bearing BALB/c mouse assessed as elevated arginine levels in tumor measured after 2 days; assay type: functional, organism-based; settings: time 2.0 day
[7] = test system: EMT6; test: In vivo inhibition of […] in EMT6 tumor bearing BALB/c mouse assessed as elevated arginine levels in tumor at 250 mg/kg, po administered twice daily measured after 14 days; assay type: functional, organism-based; settings: Neoplasm, time 14.0 day
[8] = test system: EMT6; test: In vivo inhibition of […] in EMT6 tumor bearing BALB/c mouse assessed as elevated arginine levels in tumor in the presence of mouse anti-PD-1 mAb at 250 mg/kg, po administered twice daily measured after 14 days; assay type: functional, organism-based; settings: Neoplasm, time 14.0 day
[9] = Drug uptake in serum of EMT6 tumor bearing BALB/c mouse at 30 to 300 mg/kg, po administered twice daily measured after 2 days; assay type: ADME, organism-based; settings: in vivo, 48 h, dose 30-300 mg/kg, time 2 day
[10] = test system: EMT6; test: In vivo inhibition of […] in EMT6 tumor bearing BALB/c mouse assessed as elevated arginine levels in serum in the presence of mouse anti-PD-1 mAb at 250 mg/kg, po administered twice daily measured after 14 days; assay type: functional, organism-based; settings: time 14.0 day
[11] = Drug uptake in tumor of EMT6 tumor bearing BALB/c mouse at 30 to 300 mg/kg, po administered twice daily measured after 2 days; assay type: ADME, organism-based, Neoplasm; settings: in vivo, 48 h, dose 30-300 mg/kg, time 2 day
[12] = test system: EMT6; test: In vivo inhibition of […] in EMT6 tumor bearing BALB/c mouse assessed as elevated arginine levels in serum measured after 2 days; assay type: functional, organism-based; settings: time 2.0 day
[13] = Toxicity in EMT6 tumor bearing BALB/c mouse assessed as change in body weight at 30 to 300 mg/kg, po administered twice daily measured up to 14 days; assay type: organism-based; settings: in vivo, 336 h, dose 30-300 mg/kg, time <=14 day
[14] = test system: EMT6; test: In vivo inhibition of […] in EMT6 tumor bearing BALB/c mouse assessed as elevated arginine levels in serum at 250 mg/kg, po administered twice daily measured after 14 days; assay type: functional, organism-based; settings: time 14.0 day
[15] = Oral bioavailability in C57BL/6 mouse in the presence of compound 18 at 10 mg/kg; assay type: ADME, organism-based; settings: in vivo
[16] = Metabolic stability in C57BL/6 mouse hepatocytes assessed as hydrolysis product of (2S,3R,4R)-4-amino-3-(3-boronopropyl)pyrrolidine-2-carboxylic acid measured; assay type: ADME, cell-based, Hepatocyte

| Compound | IC50 [1] [nM] | EC50 [2] [nM] | bioavailability [3] [%] | bioavailability [4] [%] | other results |
| --- | --- | --- | --- | --- | --- |
| O=C(O)[C@H]1NC[C@H](O)[C@H]1CCCB(O)O | 4 | 6900 | 41 | 12 | – |
| C[C@@]1(CCCB(O)O)CCN[C@@H]1C(=O)O | 33 | 6300 | 19 | 9 | – |
| O=C(O)[C@H]1NCC[C@@H]1CCCB(O)O | – | – | 44 | 34 | – |
| N[C@H]1CN[C@H](C(=O)O)[C@@H]1CCCB(O)O | 3 | 20000 | 14 | – | – |
| O=C(O)C1CC(CCB(O)O)CN1 (racemic) | 8730 | – | – | – | – |
| CC(C)[C@H](N)C(=O)N[C@H]1CN[C@H](C(=O)O)[C@@H]1CCCB(O)O | 2 | – | 13 | – | Stabilty [5]: Unstable |
| O=C(O)[C@H]1NCCO[C@H]1CCCB(O)O | – | – | 14 | 10 | – |
| O=C(O)[C@H]1NCC[C@H]1CCCB(O)O | 16 | 3400 | 43 | 25 | Activity [6]: Dose-Dependent Effect; inhibition [7]: Active; inhibition [8]: Active; Drug uptake [9]: Active; inhibition [10]: Active; Drug uptake [11]: Active; Activity [12]: Dose-Dependent Effect; Activity [13]: Non-Toxic; inhibition [14]: Active |
| C[C@H](N)C(=O)N[C@H]1CN[C@H](C(=O)O)[C@@H]1CCCB(O)O | 11 | – | 3 | – | Stabilty [5]: Unstable; bioavailability [15]: 27%; Drug metabolism [16]: Metabolite_Detected |
| CN(C)[C@H]1CN[C@H](C(=O)O)[C@@H]1CCCB(O)O | 66 | – | 17 | – | – |
| O=C(O)[C@H]1NC[C@H]1CCCB(O)O | – | – | 42 | – | – |
| CC(C)(C)[C@H](N)C(=O)N[C@H]1CN[C@H](C(=O)O)[C@@H]1CCCB(O)O | < 1 | – | 34 | – | – |
| NC[C@@H]1C[C@@H](CCCB(O)O)[C@@H](C(=O)O)N1 | 30 | 16000 | 44 | 51 | – |
| O=C(O)[C@H]1N[C@H](CO)C[C@H]1CCCB(O)O | 8 | 4200 | 12 | 12 | – |
| NC[C@@]1(CCCB(O)O)CCN[C@@H]1C(=O)O | 5 | 14000 | – | – | – |
| CN[C@H](C(=O)N[C@H]1CN[C@H](C(=O)O)[C@@H]1CCCB(O)O)C(C)C | 5 | – | 4.6 | – | – |
| O=C(O)[C@H]1NC[C@H](NCC(F)(F)F)[C@H]1CCCB(O)O | – | – | 10 | – | – |
| CC(C)[C@@H](N)C(=O)N[C@H]1CN[C@H](C(=O)O)[C@@H]1CCCB(O)O | 34 | – | – | – | – |
| O=C(O)[C@H]1NCC[C@@]1(CO)CCCB(O)O | 19 | 11000 | 34 | 39 | – |
| O=C(O)[C@@]1(CCN2CCCCC2)NCC[C@H]1CCCB(O)O | 70 | > 30000 | 8.5 | 2.7 | – |
| O=C(O)[C@H]1NC[C@@H]1CCCB(O)O | – | – | 50 | – | – |
| C[C@@H]1C[C@@H](CCCB(O)O)[C@@H](C(=O)O)N1 | 7 | 2800 | 31 | – | – |
| CN[C@H]1CN[C@H](C(=O)O)[C@@H]1CCCB(O)O | – | – | 11 | – | – |
| CO[C@H]1CN[C@H](C(=O)O)[C@@H]1CCCB(O)O | – | 28000 | – | – | – |
